Reference: US6734292B1, “Pseudoerythromycin derivatives” (The Kitasato Institute, priority 2002, dated 2004)
Several values for one entry are separate records, joined by “and”; a condition that tells them apart may be missing. Identical values can stand only once.

Assays:
[1] = system: bleomycin-induced pulmonary fibrosis; assay: suppressive effect against bleomycin-induced pulmonary fibrosis (hydroxyproline levels in tissue); format: in vivo, mice; details: for Hydroxyproline levels in tissue, Assay result / Hydroxyproline levels in tissue, Weight conversion: day-28, individual mice
[2] = system: THP-1 cells; assay: enhancing effect for differentiation-induction from human monocyte to macrophage (THP-1/Mφ system, MTT readout); format: cell-based; set-up: key: ++: enhanced 100% or more; +: enhanced 50-100%; ±: enhanced 25-50%; −: no activity; /: expressed cytoxicity; NT: not tested or under assessment; details: in comparison with enhancing action for differentiation-induction of EM 100 μM
Procedure: In order to confirm enhancing effect for differentiation-induction of the compounds of the present invention, the enhancing effect for differentiation-induction from human monocyte to macrophage was assayed. Method is performed as follows. THP-1 cells were collected from cultured liquid by centrifugation, adjusted the concentration to 2×10^5 cells/ml using medium (RPMI 1640) and distributed into the 48-well plate at 500 μl/well. PMA solution 10 μl and sample solution 5 μl were added in each well, stirred with mild shaking and incubated at 37° C. for 72-96 hours under 5% CO2. Further MTT 0.5 mg/ml solution was added at 300 μl/well, and incubated at 37° C. for 3 hours under 5% CO2. Supernatant solution was suctioned using the injection tube, added DMSO 500 μl using automatic continuous injector to dissolve formazan completely and transferred each 100 μl to the 96-well plate. The optical absorption was measured using the plate-reader.

[3] = system: influenza virus-induced pneumonia; assay: suppressive effect against pneumonia caused by influenza viral infection (mice influenza pneumonia model); format: in vivo
Procedure: Next, the suppressive effect of the compound EM703 against pneumonia caused by influenza viral infection was examined.
Sample was dissolved in physiological saline containing 1% DMSO and amount corresponding to oral dosage of the small administration for long-term therapy was administered from day-1 to day-6 of the infection to mice influenza pneumonia model (0.3 mg and 0.03 mg/mice), once a day, intraperitoneally. Results were compared with control group which was given only solvent.
In this system, mice developed pneumonia and almost died about 20 days after infection. […] This indicates suppressive effect against pneumonia and result to cure pneumonia.

[4] = BLM + EM703 group: BLM 100 mg/kg tail vein day-0, EM703 50 mg/kg/day orally for 17 days
[5] = EM703 group (no BLM), 50 mg/kg/day orally, 50 mg/kg/day

Row | SMILES | Hydroxyproline levels in tissue, Assay result [1, 4] | Hydroxyproline levels in tissue, Weight conversion [1, 4] | Hydroxyproline level, an index for lung injury, BLM+EM703 group versus BLM administered group ([1]; EM703 50 mg/kg/day orally, BLM 100 mg/kg) | Hydroxyproline levels in tissue, Assay result [1, 5] | Hydroxyproline levels in tissue, Weight conversion [1, 5] | activities in THP-1/Mφ system, Treated conc. 0.3 μM [2] | activities in THP-1/Mφ system, Treated conc. 1 μM [2] | activities in THP-1/Mφ system, Treated conc. 3 μM [2] | activities in THP-1/Mφ system, Treated conc. 10 μM [2] | survival of mice ([3]; EM703 0.3 mg/mice intraperitoneally once a day, day-1 to day-6 of infection, control mice almost died about 20 days after infection, FIG. 2) | body weight ([3]; administration of EM703 intraperitoneally, control showed significant decrease of body weight, FIG. 3) | suppressive effect against influenza virus-induced pneumonia ([3]; mice influenza pneumonia model, 0.3 mg/mice) | melting point
1 | CC[C@H]1O[C@]2(O)O[C@H]([C@@H](C)C3O[C@@](C)(C[C@@H]3C)[C@H](O[C@@H]3OC(C)CC(NC)C3O)[C@@H](C)[C@H](O[C@H]3CC(C)(OC)[C@@H](O)C(C)O3)[C@H]2C)[C@]1(C)O (stereo partly drawn) [EM703, de(3′-N-methyl)-8,9-anhydro-pseudoerythromycin A 6,9-hemiketal] | 583 µmol/L and 495 µmol/L and 437 µmol/L and 314 µmol/L | 5.2 µmol/g and 4.5 µmol/g and 4.4 µmol/g and 2.9 µmol/g | reduced | 552 µmol/L and 489 µmol/L and 591 µmol/L | 5.0 µmol/g and 4.6 µmol/g and 5.4 µmol/g | + (enhanced 50-100%) | + (enhanced 50-100%) | + (enhanced 50-100%) | + (enhanced 50-100%) | 40% | increase body weight from day-10 | cured pneumonia | 
2 | CCCCCCN(CCCCCC)C1CC(C)O[C@@H](O[C@@H]2[C@@H](C)[C@H](O[C@H]3CC(C)(OC)[C@@H](O)C(C)O3)[C@@H](C)[C@@]3(O)O[C@H]([C@@H](C)C4O[C@@]2(C)C[C@@H]4C)[C@](C)(O)[C@@H](CC)O3)C1O (stereo partly drawn) [EM739, bis-de(3′-N-methyl)-3′,3′-N,N-dihexyl-8,9-anhydro-pseudoerythromycin A 6,9-hemiketal] |  |  |  |  |  | − | ± (enhanced 25-50%) | + (enhanced 50-100%) | + (enhanced 50-100%) |  |  |  | 158 to 160 °C
3 | CCCCCCNC1CC(C)O[C@@H](O[C@@H]2[C@@H](C)[C@H](O[C@H]3CC(C)(OC)[C@@H](O)C(C)O3)[C@@H](C)[C@@]3(O)O[C@H]([C@@H](C)C4O[C@@]2(C)C[C@@H]4C)[C@](C)(O)[C@@H](CC)O3)C1O (stereo partly drawn) [EM738, bis-de(3′-N-methyl)-3′-N-hexyl-8,9-anhydro-pseudoerythromycin A 6,9-hemiketal] |  |  |  |  |  | − | ± (enhanced 25-50%) | + (enhanced 50-100%) |  |  |  |  | 115 to 118 °C
